Results from ChEMBL document CHEMBL1201862, “PubChem BioAssay data set” (2004).
Structures can show the parent of a compound that is named as a salt.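 96-well plates; 48 h exposure; 5 concentrations. Endpoints by linear interpolation between flanking doses. Not reached: highest tested concentration assigned. GI50: concentration for 50% inhibition of growth.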 Calls of active or inactive are those of the source. Rule as the data show it: active = GI50 up to about 1.1 µM and inactive = higher.

Assays:
Experiment in all cases: growth of human tumour cells (NCI), 48 h
MDA-MB-231 = tested on: MDA-MB-231
NCI-H23 = tested on: NCI-H23
OVCAR-5 = tested on: OVCAR-5
HCT-116 = tested on: HCT-116
A498 = tested on: A498
SN12C = tested on: SN12C
SF-539 = tested on: SF-539
Hs-578T = tested on: Hs-578T
SNB-75 = tested on: SNB-75
NCI-H460 = tested on: NCI-H460
SK-MEL-5 = tested on: SK-MEL-5
UACC-62 = tested on: UACC-62
M14 = tested on: M14
COLO 205 = tested on: COLO 205
KM12 = tested on: KM12
OVCAR-4 = tested on: OVCAR-4
IGROV-1 = tested on: IGROV-1
EKVX = tested on: EKVX
UACC-257 = tested on: UACC-257
BT-549 = tested on: BT-549

Measured: GI50

CCOC(=O)c1c(NC(=O)c2cccs2)sc2c1CCCC2
inactive: MDA-MB-231 24.6 µM | NCI-H23 48.3 µM | OVCAR-5 35 µM | HCT-116 46.9 µM | A498 24.3 µM | SN12C > 90.4 µM | SF-539 24.4 µM | Hs-578T 27.6 µM | SNB-75 5.68 µM | NCI-H460 > 88.9 µM | SK-MEL-5 > 100 µM | UACC-62 52.1 µM | M14 > 100 µM | COLO 205 > 100 µM | KM12 > 100 µM | OVCAR-4 60.3 µM | IGROV-1 31.3 µM | EKVX 54.8 µM | UACC-257 > 100 µM | BT-549 58.7 µM

O=C(Nn1cnn2c(=O)c3ccccc3nc2c1=O)c1ccccc1
inactive: MDA-MB-231 > 100 µM | NCI-H23 > 100 µM | OVCAR-5 > 100 µM | HCT-116 > 100 µM | A498 > 100 µM | SN12C > 100 µM | SF-539 > 100 µM | Hs-578T > 100 µM | SNB-75 > 100 µM | NCI-H460 > 100 µM | SK-MEL-5 > 100 µM | UACC-62 > 100 µM | M14 > 100 µM | COLO 205 > 100 µM | KM12 > 100 µM | OVCAR-4 > 100 µM | IGROV-1 > 100 µM | EKVX > 100 µM | UACC-257 > 100 µM | BT-549 > 100 µM

NS(=O)(=O)c1ccc(NCc2cnc3ccccc3n2)cc1
inactive: MDA-MB-231 > 100 µM | NCI-H23 > 100 µM | OVCAR-5 > 100 µM | HCT-116 > 100 µM | A498 > 100 µM | SN12C > 100 µM | SF-539 > 100 µM | Hs-578T > 100 µM | SNB-75 > 100 µM | NCI-H460 > 100 µM | SK-MEL-5 > 100 µM | UACC-62 > 100 µM | M14 > 100 µM | COLO 205 > 100 µM | KM12 > 100 µM | OVCAR-4 > 100 µM | IGROV-1 > 100 µM | EKVX > 100 µM | UACC-257 > 100 µM | BT-549 > 100 µM

CC[C@@H]1C(=O)OC[C@@H]1Cc1cncn1C [PILOCARPINE HYDROCHLORIDE]
inactive: MDA-MB-231 > 100 µM | NCI-H23 > 100 µM | OVCAR-5 > 100 µM | HCT-116 > 100 µM | A498 > 100 µM | SN12C > 100 µM | SF-539 > 100 µM | Hs-578T > 100 µM | SNB-75 > 100 µM | NCI-H460 > 100 µM | SK-MEL-5 > 100 µM | UACC-62 > 100 µM | M14 > 100 µM | COLO 205 > 100 µM | KM12 > 100 µM | OVCAR-4 > 100 µM | IGROV-1 > 100 µM | EKVX > 100 µM | UACC-257 > 100 µM | BT-549 > 100 µM

CC(C(=O)c1ccccc1)C(c1ccccc1)N1CCOCC1 (stereo unspecified)
inactive: MDA-MB-231 > 100 µM | NCI-H23 > 100 µM | OVCAR-5 > 100 µM | HCT-116 > 100 µM | A498 > 100 µM | SN12C > 100 µM | SF-539 > 100 µM | Hs-578T > 100 µM | SNB-75 > 100 µM | NCI-H460 > 100 µM | SK-MEL-5 > 100 µM | UACC-62 > 100 µM | M14 > 100 µM | COLO 205 > 100 µM | KM12 > 100 µM | OVCAR-4 > 100 µM | IGROV-1 > 100 µM | EKVX > 100 µM | UACC-257 > 100 µM | BT-549 > 100 µM

CC(SCc1ccccc1)C(=O)O (stereo unspecified)
inactive: MDA-MB-231 > 100 µM | NCI-H23 > 100 µM | OVCAR-5 > 100 µM | HCT-116 > 100 µM | A498 > 100 µM | SN12C > 100 µM | SF-539 > 100 µM | Hs-578T > 100 µM | SNB-75 > 100 µM | NCI-H460 > 100 µM | SK-MEL-5 > 100 µM | UACC-62 > 100 µM | M14 > 100 µM | COLO 205 > 100 µM | KM12 > 100 µM | OVCAR-4 > 100 µM | IGROV-1 > 100 µM | EKVX > 100 µM | UACC-257 > 100 µM | BT-549 > 100 µM

CN(CCCCN1CCCC1)CCCN(C)C(=O)Cc1ccc(Cl)c(Cl)c1
inactive: MDA-MB-231 10.2 µM | NCI-H23 18 µM | OVCAR-5 29.6 µM | HCT-116 13.2 µM | A498 15.8 µM | SN12C 17.5 µM | SF-539 7.38 µM | Hs-578T 20.6 µM | SNB-75 20.7 µM | NCI-H460 16.3 µM | SK-MEL-5 9.98 µM | UACC-62 4.33 µM | M14 17 µM | COLO 205 11.9 µM | KM12 12.5 µM | OVCAR-4 20 µM | IGROV-1 20.2 µM | EKVX 19.5 µM | UACC-257 3.29 µM | BT-549 16 µM

Cc1cc(Cc2cc(C)cc(C(C)(C)C)c2O)c(O)c(Cc2cc(C)cc(C(C)(C)C)c2O)c1
inactive: MDA-MB-231 1.79 µM | NCI-H23 1.66 µM | OVCAR-5 3.48 µM | HCT-116 1.92 µM | A498 2.39 µM | SN12C 2.34 µM | SF-539 2.51 µM | Hs-578T 1.67 µM | SNB-75 4.62 µM | NCI-H460 1.57 µM | UACC-62 1.86 µM | M14 2.64 µM | COLO 205 4.53 µM | KM12 2.91 µM | OVCAR-4 4.05 µM | IGROV-1 3.25 µM | EKVX 2.82 µM | UACC-257 2.29 µM | BT-549 1.87 µM
active: SK-MEL-5 1.08 µM

Cn1c(N)c(/N=N/c2ccc(S(N)(=O)=O)cc2)c(=O)n(C)c1=O
inactive: MDA-MB-231 > 100 µM | NCI-H23 > 100 µM | OVCAR-5 > 100 µM | HCT-116 > 100 µM | A498 > 100 µM | SN12C > 100 µM | SF-539 > 100 µM | Hs-578T 22.3 µM | SNB-75 22.6 µM | NCI-H460 > 100 µM | SK-MEL-5 > 100 µM | UACC-62 91.8 µM | M14 > 100 µM | COLO 205 > 100 µM | KM12 > 100 µM | OVCAR-4 > 100 µM | IGROV-1 > 100 µM | EKVX > 100 µM | UACC-257 > 100 µM | BT-549 > 100 µM

C/C(=N\c1ccc(N(C)C)cc1)c1ccccc1
inactive: MDA-MB-231 18.3 µM | NCI-H23 21.1 µM | OVCAR-5 > 100 µM | HCT-116 16.9 µM | A498 > 100 µM | SN12C 17.4 µM | SF-539 56 µM | Hs-578T 22.1 µM | SNB-75 22.8 µM | NCI-H460 81.1 µM | SK-MEL-5 15.9 µM | UACC-62 17.1 µM | M14 16.3 µM | COLO 205 17.8 µM | KM12 31.8 µM | OVCAR-4 25.1 µM | IGROV-1 25.7 µM | EKVX 72.3 µM | UACC-257 > 10 µM | BT-549 18.9 µM

CN(C)c1ccc(/N=N/c2ccc3[nH]cnc3c2)cc1
inactive: MDA-MB-231 15.1 µM | NCI-H23 45.5 µM | OVCAR-5 26.5 µM | HCT-116 18 µM | A498 20.4 µM | SN12C 22 µM | SF-539 17.8 µM | Hs-578T 34.7 µM | SNB-75 31.6 µM | NCI-H460 18.8 µM | SK-MEL-5 30.3 µM | UACC-62 24.8 µM | M14 21.4 µM | COLO 205 19.3 µM | KM12 29.2 µM | OVCAR-4 24.2 µM | IGROV-1 34.5 µM | EKVX 33.5 µM | UACC-257 23 µM | BT-549 32.5 µM

Oc1ccc(/C=C/c2ccc3cccc(O)c3n2)cc1O
inactive: MDA-MB-231 23 µM | OVCAR-5 16.1 µM | HCT-116 3.77 µM | A498 11.5 µM | SN12C 2.94 µM | SF-539 3.13 µM | Hs-578T 36.1 µM | SNB-75 4.74 µM | NCI-H460 3.11 µM | SK-MEL-5 3.02 µM | UACC-62 4.79 µM | M14 2.69 µM | COLO 205 14.3 µM | KM12 5.45 µM | OVCAR-4 7.5 µM | IGROV-1 1.44 µM | EKVX 6.11 µM | UACC-257 10.5 µM | BT-549 1.61 µM

C=C[C@]1(C)CC(=O)C(C(C)C=O)[C@]12C(=O)Oc1cccc(C)c1C2=O (stereo partly specified)
inactive: MDA-MB-231 17.6 µM | NCI-H23 17.1 µM | OVCAR-5 16.6 µM | HCT-116 7.85 µM | A498 25.9 µM | SN12C 16.3 µM | SF-539 16.2 µM | Hs-578T 16.3 µM | SNB-75 16.4 µM | NCI-H460 16.6 µM | SK-MEL-5 13.2 µM | UACC-62 16.1 µM | M14 16.3 µM | COLO 205 17.3 µM | KM12 14.7 µM | OVCAR-4 17.2 µM | EKVX 19.4 µM | UACC-257 17.6 µM | BT-549 14.3 µM

O=Cc1ccc(Oc2c3ccccc3nc3ccccc23)cc1
inactive: MDA-MB-231 2.29 µM | OVCAR-5 4.29 µM | HCT-116 2.14 µM | SN12C 2.85 µM | SF-539 1.76 µM | Hs-578T 2.53 µM | SNB-75 15.5 µM | NCI-H460 16 µM | SK-MEL-5 11.5 µM | M14 3.44 µM | COLO 205 3.42 µM | KM12 11.1 µM | OVCAR-4 4.63 µM | EKVX 17.7 µM | BT-549 14.8 µM
active: A498 0.869 µM | UACC-62 0.46 µM | UACC-257 0.346 µM
